“Also recorded” adds a separate entry of the source.
Tests used:
IRS-1 = assay: Tyrosine phosphorylation of IRS-1 in IGF-I-stimulated MCF7 cells; type: cell-based, human; conditions: antibodies 10 μg/ml, IGF-I 50 ng/ml
Method: MCF7 cells are cultured for 24 hours at 5·10^4 cells/cm^2 (75 cm^2 plates, COSTAR) in 20 ml of RPMI without phenol red, mixed with 5 mM of glutamine, penicillin/streptomycin (respectively 100 U/100 μg/ml) and 10% of fetal calf serum. After three washes in PBS, the cells were incubated for 12 hours in medium (RPMI) without phenol red, devoid of fetal calf serum and mixed with 5 mM of glutamine, penicillin/streptomycin, bovine serum albumin at 0.5 μg/ml (Sigma A-8022) and transferrin at 5 μg/ml (Sigma T8158).
For activation, the cells were first incubated at 37° C. for 2 minutes with blocking antibodies (10 μg/ml) and then IGF-I (Sigma I3769, 50 ng/ml) was added for two additional minutes. The reaction was stopped by aspiration of the incubation medium and the plates were laid on ice. […] The solutions were centrifuged at 12,000 rpm for ten minutes (4° C.) and the protein concentrations of the supernatants were quantified by BCA.
500 μg of proteins of the cell lysate were mixed with the anti-IGF-IR (Santa cruz Ref.: sc-713) for immunoprecipitation and incubated on the shaker at 4° C. for 1.5 hours. […] The supernatants were analyzed by electrophoresis on polyacrylamide SDS gel (8% Novex EC6015). […]

MCF-7 cells = assay: Apoptosis of MCF-7 cells (Annexin V-FITC/DAPI flow cytometry); type: cell-based, human; conditions: antibody 10 μg/ml + doxorubicin 2 μg/ml, 24 hours
Method: As indicated above, IGF-IR is capable of conferring protection against apoptosis when it is overexpressed on the surface of cells. […] In these experiments, the MCF-7 cells are inoculated at 2·10^4/cm^2 in Petri dishes and cultured for 24 h in RPMI without phenol red supplemented with 10% of fetal calf serum (FCS). The cells are then washed twice with PBS and put back into culture in medium with 0% FCS. They are allowed an adaptation time of 10 minutes at 37° C. before the addition of the antibodies at 10 μg/ml. After an extra 10 minutes at 37° C., recombinant IGF-I (Sigma) is added to the culture medium to a final concentration of 50 ng/ml. The cells are left at 37° C. again for one hour in order to allow the attachment of the antibodies and of the IGF-I. Finally, the doxorubicin (Sigma) is added to the culture medium at 2 μg/ml and the cells are incubated for 24 hours at 37° C.
The experiments have likewise been conducted with navelbine at a concentration of 10 μg/ml.
The analysis of the cell viability is carried out by flow cytometric analysis after labeling with the annexin V-FITC (20 minutes, 4° C.) and DAPI (2 μg/ml). The percentage of dead cells considered is the labeled population Annexin+/DAPI+. The antibody 5C2 is used as a control isotype.

MCF-7 tumor = MCF-7 tumor growth in nude mice (subcutaneous xenograft); type: in vivo; conditions: for inhibition of MCF-7 tumor growth in vivo, murine versus humanized antibody: 125 μg/dose twice a week i.p. (Example 36)
Method: The in vivo selection was carried out in an established tumor model. In order to do this, nude mice received a subcutaneous implant of slow-release estrogen, indispensable for the taking of the tumor in a murine model. Twenty-four hours after implantation of the estrogens, 5·10^6 MCF-7 cells are grafted onto the right flank of the mouse subcutaneously. Five days after this cell graft, the tumors are measurable and batches of 6 mice are formed at random. The treatment of the mice is carried out twice per week, during 5 to 6 weeks, at the dose of 250 μg/dose/mouse. In the control group, the mice are treated in the same fashion with a murine control isotype. […] Another non exclusive hypothesis could be the recognition by these antibodies of the atypical IGF-IR as described in the paper of Siddle et al., (Siddle et al., 1994, Horn Res. 41(suppl. 2):56-65).
The long-term use of tamoxifen is associated with a significant increase in the risk of endometrial cancer (Fisher et al., J. of National Cancer Institute, 86, 7:527-537, 1994; VIDAL 2000, 1975-1976) and of collateral recurrence of E2-independent cancer of the breast (Li C. I. et al., J. Natl. Cancer Inst., July 4, 93(13):1008-1013, 2001). […] In order to do this, 7·10^6 MCF-7 cells were implanted sc (subcutaneously) in nude mice, 24 hours after implantation in these same mice of a grain of estradiol with prolonged release (0.72 mg/tablet liberated over 60 days), indispensable for the establishment of any E2-dependent human tumor in this animal species. Five days after this implantation, the tumors are measured and groups of 6 mice are formed. […] The tamoxifen is administered daily for 4 weeks except at the weekend. […] A study was previously carried out in order to verify that the solvent alone is without influence on the tumor growth.
To do this, 5·10^6 A549 cells were implanted subcutaneously in nude mice. Five days after this implantation, the tumors were measured and groups of 6 mice were formed. […] In the MCF-7 breast tumor model, a sustained-release oestradiol granule (0.72 mg/tablet released over 60 days) is implanted subcutaneously 24 hours before implantation of the cells. This granule is essential to the establishment of any E2-dependent human tumor in this animal species.

| Substance | inhibition of tyrosine phosphorylation of IRS-1 (IRS-1) | potentiation of doxorubicin-induced cell death (MCF-7 cells) | inhibition of MCF-7 tumor growth in vivo, murine versus humanized antibody (MCF-7 tumor) | inhibition of MCF-7 tumor growth in vivo (MCF-7 tumor; 250 μg/dose/mouse twice per week i.p.) | inhibition of MCF-7 tumor growth in vivo, murine versus humanized antibody (MCF-7 tumor; listed as 7H2HM) |
| --- | --- | --- | --- | --- | --- |
| 7C10: murine monoclonal anti-IGF-IR IgG1 secreted by the hybridoma deposited at the CNCM under the number I-2717 | inhibit the phosphorylation | significant increase in cell death | significant inhibition of tumor growth | very significant inhibition of the tumor growth; also recorded: significantly inhibiting the growth; also recorded: significantly more efficacious than tamoxifen |  |
| h7C10: humanized 7C10 anti-IGF-IR antibody, isotype IgG1 (humanized 1 written 7H2HM) | inhibit the phosphorylation | same effect | exactly the same intensity as that observed with its murine counterpart |  | perfectly comparable with the murine antibody 7C10 |

Source: patent US8101180B2, “Anti-IGF-IR and/or anti-insulin/IGF-I hybrid receptors antibodies and uses thereof” (Pierre Fabre Medicament, priority 2002, dated 2012)
